In patent US6479502B1, “Hydroxamic acid derivatives as proteinase inhibitors” (British Biotech Pharmaceuticals, priority 1998, dated 2002):

Legend:
gelatinase A = molecular target: T1, gelatinase A (Homo sapiens, UniProt P08253); experiment: Inhibition of gelatinase A (72 kDa gelatinase); assay type: biochemical; details: statement in words, no value given
T1 construct: endogenous in cells; host or cells: RPMI-7951 cells (endogenous enzyme, purified by gelatin-agarose chromatography)
T1 sequence (P08253 110-660): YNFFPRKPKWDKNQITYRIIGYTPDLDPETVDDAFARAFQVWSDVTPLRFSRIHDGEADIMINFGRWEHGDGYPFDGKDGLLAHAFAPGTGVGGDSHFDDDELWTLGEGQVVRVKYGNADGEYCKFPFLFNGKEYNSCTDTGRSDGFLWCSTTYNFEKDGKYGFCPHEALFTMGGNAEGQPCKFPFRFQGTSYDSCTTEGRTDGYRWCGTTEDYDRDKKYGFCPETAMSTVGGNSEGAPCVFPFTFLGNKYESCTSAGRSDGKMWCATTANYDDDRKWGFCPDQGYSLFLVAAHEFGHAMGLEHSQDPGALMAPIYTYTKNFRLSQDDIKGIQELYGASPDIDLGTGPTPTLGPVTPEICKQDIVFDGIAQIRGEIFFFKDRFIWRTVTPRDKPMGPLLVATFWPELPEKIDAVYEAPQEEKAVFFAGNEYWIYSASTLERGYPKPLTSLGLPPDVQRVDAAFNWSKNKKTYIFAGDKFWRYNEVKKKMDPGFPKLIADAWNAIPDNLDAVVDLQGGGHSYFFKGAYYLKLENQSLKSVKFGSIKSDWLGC
Experimental: The potency of compounds of the invention as inhibitors of 72 kDa gelatinase may be determined by a procedure based on the method of Sellers et. al, Biochem. J., 171, 493-496 (1979). 72 kDa gelatinase, derived from RPMI-7951 cells is purified by gelatin-agarose chromatography. The enzyme is activated by incubation with aminophenyl mercuric acetate and approximately 0.05 units is incubated with 50μg [^14C]-radiolabellet gelatin in an appropriate buffer for 16 hours at 37° C. At the end of the incubation 50μg bovine serum albumin, together with trichloroacetic acid (final concentration 16%) are added to stop the reaction and to precipitate any undegraded substrate. The reaction tubes are placed on ice for 15 minutes before centrifugation at 10,000g for 15 minutes to sediment the precipitated substrate. A 200μl aliquot of the reaction supernatant is removed and the radioactivity determined by liquid scintillation counting. The effect of the inhibitors is determined by reference to a dose response curve. The IC50 (the concentration of inhibitor required to cause a 50% decrease in enzyme activity) is obtained by fitting a curve to the data and computing the concentration of inhibitor required to achieve 50% inhibition of the enzyme. For each IC50 determination, the effect on gelatinase activity of at least 8 concentrations of the inhibitor are examined. […]

collagenase-3 (MMP-13) = collagenase-3 (MMP-13) (Homo sapiens, UniProt P45452); experiment: Inhibition of collagenase-3 (MMP-13); assay type: biochemical; details: statement in words, no value given
Experimental: The potency of compounds of the invention as inhibitors of collagenase may be determined by the procedure of Cawston and Barrett, (Anal. Biochem., 99, 340-345, 1979), whereby a 1mM solution of the compound being tested, or a dilution thereof, is incubated at 37° for 16 hours with collagen and collagenase (buffered with 25mM Hepes, pH 7.5 containing 5mM CaCl2, 0.05% Brij 35 and 0.02% NaN3). The collagen is acetylated ^14C collagen prepared by the method of Cawston and Murphy, (Methods in Enzymology, 80, 711, 1981). The samples are centrifuged to sediment undigested collagen, and an aliquot of the radioactive supernatant removed for assay on a scintillation counter as a measure of hydrolysis. The collagenase activity in the presence of 1mM of the test compound, or a dilution thereof, is compared to activity in a control devoid of inhibitor and the result reported as that of inhibitor concentration effecting 50% inhibition of the collagenase activity (IC50). The potency of compounds of the invention as inhibitors of stromelysin may be determined by the procedure of Cawston et al, (Biochem. J., 195, 159-165, 1981), whereby a 1mM solution of the compound being tested, or a dilution thereof, is incubated at 37° for 16 hours with stromelysin and ^14C acetylate casein (buffered with 25mM Hepes, pH 7.5 containing 5mM CaCl2, 0.05% Brij 35 and 0.02% NaN3). […]

Row | inhibitor of gelatinase A (gelatinase A) | inhibitor of collagenase-3 (MMP-13) (collagenase-3 (MMP-13)) | SMILES
1 | inhibitor of gelatinase A |  | O=C(CC(Cc1ccccc1)S(=O)(=O)N1CCC(Cc2ccccc2)CC1)NO (centres unmarked) [Example 2, 3-(4-Benzyl-piperidine-1-sulfonyl)-N-Hydroxy-4-phenyl-butyramide]
2 |  | inhibitor of collagenase-3 (MMP-13) | O=C(CC(Cc1ccccc1)S(=O)(=O)N1CCC(COc2ccc(F)cc2)CC1)NO (centres unmarked) [Example 6, 3-[4-(4-Fluoro-phenoxymethyl)-piperidine-1-sulfonyl]-N-hydroxy-4-phenyl-butyramide]
